Experimental data: patent US12383562B2, “Application of metal complex” (Hunan Fangshengtai Medical Technology Co., Ltd., priority 2019, dated 2025)

Tested on: mice with inflammatory pain
Assay: Analgesic activity: CFA-induced inflammatory pain in mice, Von Frey test (paw withdrawal threshold)
Format: in vivo, Kunming mice
Details: for response to the compound (pain threshold): CFA mice, intraperitoneal administration, approximately 0.03 mmol/kg (9, 10 or 11 mg/kg), seven mice; for change of paw withdrawal threshold after injection of drug: drug injected 24 hours after CFA, mice with inflammatory pain
Experimental: The analgesic assays of three vanadium compounds (bis(maltolato)oxovanadium, bis(ethylmaltolato)oxovanadium, and bis(kojato)oxovanadium) in mice are presented below. Some of the results are shown in FIG. 1, where S1 is bis(maltolato)oxovanadium, S2 is bis(ethylmaltolato)oxovanadium, S3 is bis(kojato)oxovanadium, and thepositive group (i.e., a positive control group) is aspirin group.
10 μl of complete Freund's adjuvant (CFA) was injected subcutaneously into the plantar surface of the left hindpaws of mice (♂ Kunming mice, 22-40 g) to produce inflammation. Von Frey tests were performed at 24 hours after injection or later to determine pain thresholds, i.e., under the guidance of a Dixon's Up-Down method, mice were induced with Von Frey fibers to have mechanical withdrawal of their hindpaws data were collected, and their 50% paw withdrawal thresholds (referred to as paw withdrawal threshold or PWT), namely the pain thresholds, were calculated. Afterwards, the mice were divided into a physiological saline group, a positive control group and a drug group, and injected intraperitoneally with 0.4 ml of physiological saline, 0.4 ml of aspirin (acetylsalicylic acid, or ASA) Tris-buffer solution at a concentration of 20 mg/ml and a mixed solution of a tested compound and 0.4 ml of cellulose solution (1%), respectively. Then, changes in the pain threshold were monitored with the Von Frey tests.

Row | Structure (SMILES) | response to the compound (pain threshold) | change of paw withdrawal threshold after injection of drug
1 | [O]=[V-2]12([O]C3=COC(CO)=CC3=[O+]1)[O]C1=COC(CO)=CC1=[O+]2 [S3, bis(kojato)oxovanadium(IV)] | all seven mice showed a response to the compound with a general increase in pain threshold | significant increase in the paw withdrawal threshold
2 | Cc1occc(=O)c1[O][V](=[O])[O]c1c(C)occc1=O [S1, bis(maltolato)oxovanadium(IV)] | all seven mice showed a response to the compound with a general increase in pain threshold | significant increase in the paw withdrawal threshold
3 | CCc1occc(=O)c1[O][V](=[O])[O]c1c(CC)occc1=O [S2, bis(ethylmaltolato)oxovanadium(IV)] | all seven mice showed a response to the compound with a general increase in pain threshold | significant increase in the paw withdrawal threshold
